Like-named read-outs stand apart in the source and are kept apart here.
Columns and labels:
[1] = system: Pseudomonas aeruginosa MB9798 vs MB9799; conditions: ratio MITC95 PA_9798/MITC95 PA_9799
Summary of the method: (§1)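 P. aeruginosa PAO1-derived IMP-1 strains, efflux+ MB9798 and efflux− MB9799, tested by standard microbroth MIC with imipenem and/or ceftazidime fixed, usually at CLSI breakpoint, plus fixed class A/C β-lactamase inhibitor against AmpC. Inhibitor titrated; concentration restoring susceptibility recorded; MB9798/MB9799 fold difference indicates efflux.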

VIM-1 = VIM-1 (Pseudomonas aeruginosa (strain ATCC 15692 / DSM 22644 / CIP 104116 / JCM 14847 / LMG 12228 / 1C / PRS 101 / PAO1), UniProt A0A0F7KYQ8); test: biochemical; conditions: CCF2-FA substrate, 30 pM enzyme, 2 hours at 25° C.
Summary of the method: (§2)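 Fluorescence assay of metallo-β-lactamase activity using CCF2-FA, a cephalosporin-linked 7-hydroxycoumarin–fluorescein substrate. Inhibitor, enzyme and substrate were incubated together for 2 hours at 25° C. IC50 came from a 4-parameter fit of inhibition versus inhibitor concentration.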

[2] = system: Pseudomonas aeruginosa efflux− (MB9799), IMP-1; assay type: cell-based; conditions: concentration restoring susceptibility to imipenem at 2 μg/mL in the presence of a class A, C, D serine β-lactamase inhibitor closely related to relebactam
Summary of the method: as §1

NDM-1 = NDM-1 (Klebsiella pneumoniae, UniProt C7C422); test: biochemical; assay type: biochemical; conditions: fluorescence assay, CCF2-FA substrate, 1 pM enzyme, 2 hours at 25° C.; read-out: NDM-1 IC50
Sequence of NDM-1 (C7C422 whole entry, looked up, species assumed): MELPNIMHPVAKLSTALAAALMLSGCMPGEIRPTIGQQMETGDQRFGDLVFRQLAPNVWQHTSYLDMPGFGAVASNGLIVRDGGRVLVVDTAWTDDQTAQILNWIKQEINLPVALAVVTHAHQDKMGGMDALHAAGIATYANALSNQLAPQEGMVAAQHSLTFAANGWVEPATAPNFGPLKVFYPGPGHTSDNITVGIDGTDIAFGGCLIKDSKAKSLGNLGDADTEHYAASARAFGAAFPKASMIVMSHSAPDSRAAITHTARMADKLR
Summary of the method: as §2

IMP-1 = IMP-1 (Serratia marcescens, UniProt P52699); test: biochemical; assay type: biochemical; conditions: fluorescence assay, CCF2-FA substrate, 2 pM enzyme, 2 hours at 25° C.; read-out: IMP-1 IC50
Sequence of IMP-1 (P52699 whole entry, looked up, species assumed): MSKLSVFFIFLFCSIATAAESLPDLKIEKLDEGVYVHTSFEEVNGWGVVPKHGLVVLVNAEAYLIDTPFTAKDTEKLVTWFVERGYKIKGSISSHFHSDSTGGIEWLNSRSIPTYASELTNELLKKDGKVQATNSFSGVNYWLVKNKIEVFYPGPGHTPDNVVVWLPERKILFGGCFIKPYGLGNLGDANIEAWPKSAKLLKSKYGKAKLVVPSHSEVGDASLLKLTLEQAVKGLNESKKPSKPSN
Summary of the method: as §2

[3] = system: Escherichia coli expressing NDM-1 (CLB30005, CLB30016); assay type: cell-based; conditions: with imipenem 1 μg/ml; for Escherichia coli expressing NDM-1 (CLB30016) MITC95: 95% inhibition of bacterial growth
Summary of the method: (§3)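 Clinical isolates (E. coli NDM-1, S. marcescens IMP-1, K. pneumoniae VIM-1) were diluted 1:100 from saline suspension into 1.1×CAMHB and exposed to test compound with imipenem at 1 μg/ml. Plates were incubated at 35° C for 22 hours to 24 hours, and growth was read by absorbance.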

[4] = system: Klebsiella pneumoniae expressing VIM-1 (IHMA599644); assay type: cell-based; conditions: for Klebsiella pneumoniae expressing VIM-1 (IHMA599644) MITC95: with imipenem 1 μg/ml, 95% inhibition of bacterial growth
Summary of the method: as §3

[5] = system: Serratia marcescens expressing IMP-1 (CL5741); assay type: cell-based; conditions: for Serratia marcescens expressing IMP-1 (CL5741) MITC95: with imipenem 1 μg/ml, 95% inhibition of bacterial growth
Summary of the method: as §3

[6] = system: Pseudomonas aeruginosa efflux+ (MB9798), IMP-1; assay type: cell-based; conditions: concentration restoring susceptibility to imipenem at 2 μg/mL in the presence of a class A, C, D serine β-lactamase inhibitor closely related to relebactam
Summary of the method: as §1

[7] = fluorescence assay, read-out: VIM-1 IC50

Compound | Efflux ratio [1] | IC50 (VIM-1; [7]) [nM] | P. aeruginosa expressing IMP-1, efflux − (MB9799) MITC95 [2] [µM] | IC50 (NDM-1) [nM] | IC50 (IMP-1) [nM] | Escherichia coli expressing NDM-1 (CLB30016) MITC95 [3] [µM] | Klebsiella pneumoniae expressing VIM-1 (IHMA599644) MITC95 [4] [µM] | Serratia marcescens expressing IMP-1 (CL5741) MITC95 [5] [µM] | P. aeruginosa expressing IMP-1, efflux + (MB9798) MITC95 [6] [µM] | IC50 (VIM-1; VIM-1 IC50, fluorescence assay) [nM] | Escherichia coli MITC95 ([3]; NDM-1 strain, 95% inhibition of growth) [µM] | Klebsiella pneumoniae MITC95 ([4]; VIM-1 strain IHMA599644, with imipenem 1 μg/ml, 95% inhibition of growth) [µM] | Serratia marcescens MITC95 ([5]; IMP-1 strain CL5741, with imipenem 1 μg/ml, 95% inhibition of growth) [µM]
CN1CCC(NS(=O)(=O)c2ccc(-c3cccc4sc(N)nc34)c(-c3nnn[nH]3)c2S(N)(=O)=O)C1 (stereo not drawn) [Example 53, 4-(2-amino-1,3-benzothiazol-4-yl)-N1-(1-methylpyrrolidin-3-yl)-3-(1H-tetrazol-5-yl)benzene-1,2-disulfonamide] | 1.00 | 0.192 | 1.563 | 0.0415 | 0.298 | 3.125 | 3.125 | 1.563 | 1.563 |  |  |  | 
Nc1nc2c(-c3ccc(S(=O)(=O)NCCN4CCNC(=O)C4)c(S(N)(=O)=O)c3-c3nnn[nH]3)cccc2s1 [Example 15, 4-(2-amino-1,3-benzothiazol-4-yl)-N1-[2-(3-oxopiperazin-1-yl)ethyl]-3-(1H-tetrazol-5-yl)benzene-1,2-disulfonamide] | 1.00 | 0.394 | 12.5 | 0.0926 | 0.451 | 50 | 25 | 12.5 | 12.5 |  |  |  | 
N[C@@H](CO)CNS(=O)(=O)c1ccc(-c2cccc(C3N=CN=N3)c2)c(-c2nn[nH]n2)c1S(N)(=O)=O (stereo partly drawn) [Example 226, N4-((R)-2-amino-3-hydroxypropyl)-2-(2H-tetrazol-5-yl)-3′-(3H-1,2,4-triazol-3-yl)-[1,1′-biphenyl]-3,4-disulfonamide] | 2.00 | 0.948 | 3.125 | 0.747 | 3.24 | 6.25 | 12.5 | 3.125 | 6.25 |  |  |  | 
Nc1ccc(-c2ccc(S(N)(=O)=O)c(S(N)(=O)=O)c2-c2nn[nH]n2)cn1 [Example 155, 4-(6-Aminopyridin-3-yl)-3-(2H-tetrazol-5-yl)benzene-1,2-disulfonamide] | 4.88 | 0.804 | 1.281 | 1.64 | 0.658 | 0.0625 | 2.563 | 0.6406 | 6.25 |  |  |  | 
Nc1nc2c(-c3ccc(S(=O)(=O)N[C@@H]4CN[C@@H](CO)C4)c(S(N)(=O)=O)c3-c3nnn[nH]3)cccc2s1 [Example 79, 4-(2-amino-1,3-benzothiazol-4-yl)-N1-[(3S,5R)-5-(hydroxymethyl)pyrrolidin-3-yl]-3-(1H-tetrazol-5-yl)benzene-1,2-disulfonamide] | 0.50 |  | 1.563 | 0.0427 | 0.283 | 1.563 | 3.125 | 1.563 | 0.7813 | 0.181 |  |  | 
CN(C)C(=O)CNS(=O)(=O)c1ccc(-c2cccc3sc(N)nc23)c(-c2nnn[nH]2)c1S(N)(=O)=O [Example 36, N^2-{[4-(2-amino-1,3-benzothiazol-4-yl)-2-sulfamoyl-3-(1H-tetrazol-5-yl)phenyl]sulfonyl}-N,N-dimethylglycinamide] | 1.00 |  | 3.125 | 0.0369 | 0.247 | 25 | 12.5 | 3.125 | 3.125 | 0.166 |  |  | 
CNc1nc2c(-c3ccc(S(=O)(=O)N[C@H]4CCNC4)c(S(N)(=O)=O)c3-c3nn[nH]n3)cccc2[nH]1 [Example 295, (S)-4-(2-(methylamino)-1H-benzo[d]imidazol-4-yl)-N1-(pyrrolidin-3-yl)-3-(2H-tetrazol-5-yl)benzene-1,2-disulfonamide] | 1.00 | 0.172 | 0.7813 | 0.0561 | 0.775 |  |  |  | 0.7813 |  | 0.7813 | 1.563 | 0.7813
Nc1nc2c(-c3ccc(S(=O)(=O)N4CC[C@@H](F)[C@H](N)C4)c(S(N)(=O)=O)c3-c3nn[nH]n3)cccc2[nH]1 [Example 205, 3-(2-amino-1H-benzo[d]imidazol-4-yl)-6-(((3R,4R)-3-amino-4-fluoropiperidin-1-yl)sulfonyl)-2-(2H-tetrazol-5-yl)benzenesulfonamide] | 8.00 | 3.63 | 1.563 | 1.2 | 5.89 | 1.563 | 3.125 | 3.125 | 12.5 |  |  |  | 
Nc1nc2c(-c3ccc(S(=O)(=O)NCCC(N)CF)c(S(N)(=O)=O)c3-c3nnn[nH]3)cccc2s1.O=CO (stereo not drawn) [Example 123, 4-(4-(2-aminobenzo[d]thiazol-4-yl)-2-sulfamoyl-3-(1H-tetrazol-5-yl)phenylsulfonamido)-1-fluorobutan-2-aminium formate] | 1.00 |  | 1.563 | 0.036 | 0.219 | 1.563 | 3.125 | 1.563 | 1.563 | 0.189 |  |  | 
Nc1nc2c(-c3ccc(S(=O)(=O)N[C@@H]4CNC[C@@H]4F)c(S(N)(=O)=O)c3-c3nnn[nH]3)cccc2s1 [Example 58, 4-(2-amino-1,3-benzothiazol-4-yl)-N1-[(3R,4S)-4-fluoropyrrolidin-3-yl]-3-(1H-tetrazol-5-yl)benzene-1,2-disulfonamide] | 1.00 | 0.404 | 1.563 | 0.0686 | 0.759 | 1.563 | 3.125 | 1.563 | 1.563 |  |  |  | 

Reference: patent US10221163B2 (priority 2015, dated 2019)
